Laboratory results published in patent publication US20130059096A1, “METHODS AND COATINGS FOR TREATING BIOFILMS” (President and Fellows of Harvard College, priority 2010, published 2013).

Columns and labels:
[1] = system: S. aureus (strain SCO1); test: Biofilm formation on polystyrene, crystal violet staining; format: cell-based, Staphylococcus aureus
Description: Crystal violet staining Crystal violet staining was done as described previously (O'Toole et al., Mol. […] Wells were stained with 500 μl of 1.0% Crystal-violet dye, rinsed twice with 2 ml double-distilled water and thoroughly dried.
The effect of D-amino acids on biofilm formation by other bacteria was examined. The pathogenic bacterium Staphylococcus aureus forms biofilms on plastic surfaces (Otto, Curr. Top. Microbiol. Immunol. 322:207 (2008)), which can be detected by washing away unbound cells and staining the bound cells with crystal violet. […] Additionally added to the wells were no amino acids (untreated), D-tyrosine (50 μM) or the D-amino acid mixture ([…] each). Cells bound to the polystyrene were visualized by washing away unbound cells and then staining with crystal violet.
(§1) For experiments reported in Table 1, the organism/strain was S.a. Harvard SCO1, the culture medium was TSB and the cell inoculation was at 2×10^9 cfu. For experiments reported in Table 2, the organism/strain was […], the culture medium was M63 and the cell inoculation was at 1.5×10^9 cfu. Biofilm was visualized using the crystal violet method. The data is shown below in Tables 1 and 2:
For experiments reported in Tables 3 and 4, the organism/strain was S.a. Harvard SCO1, the culture medium was TSB and the cell inoculation was at 2×10^9 cfu. Biofilm was visualized using the crystal violet method.

[2] = system: Pseudomonas aeruginosa PA14; test: as above; format: cell-based
Description: Crystal violet staining Crystal violet staining was done as described previously (O'Toole et al., Mol. Microbiol. 30:295 (1998)) except that the cells were grown in 6-well plates. Wells were stained with 500 μl of 1.0% Crystal-violet dye, rinsed twice with 2 ml double-distilled water and thoroughly dried.
P. aeruginosa strain […] was grown in 12-well polystyrene plates for 48 hours at 30° C. in M63 medium containing glycerol (0.2%) and Casamino acids (20 μg/ml). Additionally added to the wells were no amino acids (untreated), D-tyrosine or the D-amino acid equimolar mixture. Cells bound to the polystyrene were visualized by washing away unbound cells and then staining with crystal violet. Wells were stained with 500 μl of 1.0% Crystal-violet dye, rinsed twice with 2 ml double-distilled water and thoroughly dried.
as §1, with “method.” for “method. The data is shown below in Tables 1 and 2:”

[3] = system: TasA fibers; test: Cell association of TasA fibers by immunogold transmission electron microscopy; format: cell-based, Bacillus subtilis; conditions: 0.1 mM, 24-hour-old Δeps cultures treated for 12 hours
Description: Transmission electron microscopy and immunolabeling. Samples were diluted with distilled water and adsorbed onto a carbon or formvar/carbon coated grid. The grid surface was made hydrophilic prior to use with glow discharge in a vacuum evaporator. Once the specimen was adsorbed onto the film surface, the excess sample was blotted off on a filter paper (Whatman #1) and the grid was floated on 5 μl of stain solution (1-2% aqueous uranyl acetate) for a few minutes and then blotted off. The samples were dried and examined in a Tecnai™ G^2 Spirit BioTWIN microscope at an accelerating voltage of 80 KV. Images were taken with an AMT 2k CCD camera. […]
The cells were grown to stationary phase with shaking in biofilm-inducing medium in the presence or absence of D-tyrosine (6 μM). […] In contrast, when the cells were washed by centrifugation, resuspended and then examined by fluorescence microscopy, untreated cells (which were often in clumps) were seen to be intensely decorated with TasA-mCherry. […] The localization of unmodified TasA protein was also analyzed by transmission electron microscopy using gold-labeled anti-TasA antibodies. […]

[4] = Staphylococcus aureus, 24 h, read-out: % Inhibition relative to control (0%, <50%, 50-90%, >90%)

N[C@H](Cc1ccc(O)cc1)C(=O)O [D-tyrosine]
Prevention of biofilm formation (FIG. 2E) ([1]; 50 μM, 12-well polystyrene, 24 hours at 37° C., TSB with glucose (0.5%) and NaCl (3%)): highly effective in preventing biofilm formation
inhibition at 0.1 µM [1, 4]: 0%
inhibition at 10 µM [1, 4]: 0%
inhibition at 100 µM [1, 4]: > 90%
inhibition at 500 µM [1, 4]: > 90%
Prevention of biofilm formation (FIG. 10) ([2]; 10 μM, strain P014, polystyrene, 48 hours at 30° C., M63 medium): effective in preventing biofilm formation
inhibition at 0.1 µM ([2]; Pseudomonas aeruginosa, PA14, Table 2, 100 nM, 48 h/30° C., polystyrene, M63, read-out: % Inhibition relative to control (0%, <50%, 50-90%, >90%)): 0%
inhibition at 10 µM ([2]; Pseudomonas aeruginosa, PA14, Table 2, 10 μM, 48 h/30° C., polystyrene, M63, read-out: % Inhibition relative to control (0%, <50%, 50-90%, >90%)): > 90%
inhibition at 100 µM ([2]; Pseudomonas aeruginosa, PA14, Table 2, 100 μM, 48 h/30° C., polystyrene, M63, read-out: % Inhibition relative to control (0%, <50%, 50-90%, >90%)): > 90%
inhibition at 500 µM ([2]; Pseudomonas aeruginosa, PA14, Table 2, 500 μM, 48 h/30° C., polystyrene, M63, read-out: % Inhibition relative to control (0%, <50%, 50-90%, >90%)): > 90%
Cell association of TasA fibers (FIG. 3D) [3]: largely undecorated with TasA fibers
